From article PMC8400635, “A Bidirectional Permeability Assay for beyond Rule of 5 Compounds” (Pharmaceutics, 2021)

Experiments:
[1] = Modified bidirectional permeability assay (24 h preincubation), Caco-2 cells; details: human, Caco-2, pH 7.4
P-gp = test: as above; details: human, Caco-2, pH 7.4, with zosuquidar 5 µM
Caco-2 cells = test: as above; details: Caco-2, modified assay; 5 µM zosuquidar
[2] = Standard bidirectional permeability assay, Caco-2 cells; assay type: in vitro ADME; details: human; for Papp A→B at 10 µM: read-out: Caco-2 Papp,AB; for Papp B→A at 10 µM: read-out: Caco-2 PappBA
[3] = Standard bidirectional permeability assay, MDCK-MDR1 cells; assay type: in vitro ADME, canine; details: dog, MDCK-MDR1, pH 7.4, 10 µM in donor, read-out: MDCK-MDR1 PappBA
P-gp (MDR1) = test: as above; assay type: in vitro ADME, canine; details: dog, MDCK-MDR1, pH 7.4, 10 µM in donor; for Papp A→B at 10 µM: read-out: MDCK-MDR1 Papp,AB
[4] = pH 7.4, Caco-2, standard conditions
[5] = Caco-2, pH 7.4, standard assay, 10 µM in donor

Papp A→B at 1 µM [1] [nm/s] | efflux ratio at 1 µM [1] | Papp A→B at 1 µM (P-gp) [nm/s] | inhibition of efflux by zosuquidar (P-gp substrate) (Caco-2 cells) | Papp ([2]; pH 7.4, Caco-2, standard assay, read-out: intrinsic permeability) [nm/s] | Papp A→B [2, 4] [nm/s] | efflux ratio [2, 4] | Papp B→A at 10 µM [3] [nm/s] | efflux ratio at 10 µM (P-gp (MDR1)) | Papp A→B at 10 µM (P-gp (MDR1)) [nm/s] | Papp A→B at 10 µM [2, 5] [nm/s] | Papp B→A at 10 µM [2, 5] [nm/s] | efflux ratio at 10 µM [2, 5] | Compound
26 | 13.8 | 130 | inhibited completely | 140 | 23 | 15.9 |  |  |  |  |  |  | Cc1nnc2n1-c1sc(CCC(=O)N3CCOCC3)cc1C(c1ccccc1Cl)=NC2 [Apafant, apafant]
 |  |  |  |  |  |  | 685 | 1 | 677 | 543 | 410 |  | COCCc1ccc(OCC(O)CNC(C)C)cc1 (stereo not drawn) [Metoprolol]
 |  |  |  |  |  |  | 326 | 0.8 | 384 | 790 | 695 | 1.1 | CC(C)NCC(O)COc1cccc2ccccc12 (stereo not drawn) [Propranolol]
